Measurements reported in patent US20230416199A1, “INHIBITORS OF AMINO ACID TRANSPORT” (ICAHN SCHOOL OF MEDICINE AT MOUNT SINAI, priority 2020, published 2023).
Read-outs that look alike come from different tables or passages of the source.

How the values were obtained:
Assay type in all cases: cell-based
[1] = target: T1, rASCT2 (Rattus norvegicus, UniProt D3ZJ25); experiment: Electrophysiology (whole-cell current recording) of transfected HEK293 cells, rASCT2
T1 construct: expressed in transfected cells; host or cells: HEK293 (ATCC CRL-11268), transient transfection
T1 sequence (D3ZJ25 1-555): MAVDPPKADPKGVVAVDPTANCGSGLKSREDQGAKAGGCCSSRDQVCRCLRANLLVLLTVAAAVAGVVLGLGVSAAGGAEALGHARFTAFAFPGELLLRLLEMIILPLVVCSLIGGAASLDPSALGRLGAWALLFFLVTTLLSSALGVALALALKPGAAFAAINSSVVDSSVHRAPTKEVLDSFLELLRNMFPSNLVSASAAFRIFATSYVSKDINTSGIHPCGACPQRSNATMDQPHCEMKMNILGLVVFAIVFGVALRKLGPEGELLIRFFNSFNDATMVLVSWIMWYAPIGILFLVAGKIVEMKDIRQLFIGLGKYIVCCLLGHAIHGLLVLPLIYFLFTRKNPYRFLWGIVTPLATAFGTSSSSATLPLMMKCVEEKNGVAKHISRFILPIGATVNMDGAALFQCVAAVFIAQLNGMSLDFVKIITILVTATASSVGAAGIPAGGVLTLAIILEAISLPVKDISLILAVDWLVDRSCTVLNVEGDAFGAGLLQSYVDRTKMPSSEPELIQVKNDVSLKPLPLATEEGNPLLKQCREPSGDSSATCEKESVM
Experimental: (§1) Human embryonic kidney 293 (HEK293, ATCC CRL-11268) cells were cultured in DMEM media supplemented with 10% (v v) fetal bovine serum (FBS), 2 mM glutamine, 1% penicillin streptomycin solution, 1 mM sodium pyruvate and non-essential amino acids. Cells were maintained at 37° C. in a fully humidified atmosphere containing 5% CO2. rASCT2, hASCT2, hASCT1, EAAT1, EAAT2, EAAC1, EAAT5 and YFP complementary DNAs were each used to transiently transfect HEK293 using POLYPLUS Jet-prime transfection reagent. Cells were analyzed using electrophysiological techniques 24-40 hours after transfection.
(§2) Stock solutions of inhibitor was prepared in dimethyl sulfoxide (DMSO) up to 100 mM. Dilutions to working concentrations were made using external buffer. […] For rASCT2, hASCT2 and hASCT1, external buffer contained 140 mM NaCl, 2 mM MgCl2, 2 mM CaCl2), and 10 mM HEPES, pH 7.40 while internal pipette solution comprised of 130 mM NaSCN, 2 mM MgCl2, 10 mM EGTA, 10 mM HEPES and 10 mM alanine, pH 7.40. For specificity experiments with EAAT1, EAAT2, EAAC1 and EAAT5, internal solution contained 10 mM glutamate instead of alanine. Compounds were applied to HEK293 cells expressing DNA of interest suspended from a current recording electrode in whole cell configuration through a rapid solution exchange device. Cells are immersed in external buffer bath used to dissolve the inhibitors. The open pipette resistance was between 3 and 6 MΩ. Series resistance was not compensated in these experiments due to relatively small currents. Currents traces were recorded using an Adams and List EPC7 amplifier and digitized using a Molecular Devices Digidata A/D converter.
(§3) Linear and nonlinear curve fitting of the experimental data were analyzed using MicroCal Origin software. Nonlinear dose-response relationships were fitted with a Michaelis-Menten-like equation to obtain apparent Ki values in the absence of substrate (see TABLE 2 for Ki values). The figures show representative current traces and dose-response curves for hACST2 and rASCT2, used to obtain Ki values in TABLE 2 for compound SN 40. At least four experiments were performed with at least three different cells. Error bars in all graphs, e.g., in FIG. 1B and FIG. 1C and tables (Ki values) represent mean±SD.

[2] = target: T2, hASCT1 (Homo sapiens, UniProt P43007); experiment: Electrophysiology (whole-cell current recording) of transfected HEK293 cells, hASCT1
T2 construct: expressed in transfected cells; host or cells: HEK293 (ATCC CRL-11268), transient transfection
T2 sequence (P43007 1-532): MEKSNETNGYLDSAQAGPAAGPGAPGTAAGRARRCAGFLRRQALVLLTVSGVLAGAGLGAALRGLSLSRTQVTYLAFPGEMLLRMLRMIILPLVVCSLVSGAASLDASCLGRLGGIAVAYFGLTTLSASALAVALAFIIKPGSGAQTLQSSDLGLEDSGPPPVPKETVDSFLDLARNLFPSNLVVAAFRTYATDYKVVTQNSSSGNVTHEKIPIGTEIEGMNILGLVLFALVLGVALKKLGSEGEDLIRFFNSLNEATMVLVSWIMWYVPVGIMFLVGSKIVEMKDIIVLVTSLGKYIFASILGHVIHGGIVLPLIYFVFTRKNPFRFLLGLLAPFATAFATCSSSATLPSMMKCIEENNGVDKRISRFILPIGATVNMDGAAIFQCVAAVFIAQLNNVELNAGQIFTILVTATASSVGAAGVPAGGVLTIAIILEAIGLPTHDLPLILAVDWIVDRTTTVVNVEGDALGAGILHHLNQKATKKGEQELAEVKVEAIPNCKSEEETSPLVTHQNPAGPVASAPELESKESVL
Experimental: as §1, §2, §3

[3] = target: T3, hASCT2 (Homo sapiens, UniProt Q15758); experiment: Competition experiment with alanine, hASCT2; conditions: first entry of the cell; for Ki: read-out: Competition Expt (h/rASCT2 Ki): hASCT2 Ki
T3 construct: expressed in transfected cells; host or cells: HEK293 (ATCC CRL-11268), transient transfection
T3 sequence (Q15758 1-541): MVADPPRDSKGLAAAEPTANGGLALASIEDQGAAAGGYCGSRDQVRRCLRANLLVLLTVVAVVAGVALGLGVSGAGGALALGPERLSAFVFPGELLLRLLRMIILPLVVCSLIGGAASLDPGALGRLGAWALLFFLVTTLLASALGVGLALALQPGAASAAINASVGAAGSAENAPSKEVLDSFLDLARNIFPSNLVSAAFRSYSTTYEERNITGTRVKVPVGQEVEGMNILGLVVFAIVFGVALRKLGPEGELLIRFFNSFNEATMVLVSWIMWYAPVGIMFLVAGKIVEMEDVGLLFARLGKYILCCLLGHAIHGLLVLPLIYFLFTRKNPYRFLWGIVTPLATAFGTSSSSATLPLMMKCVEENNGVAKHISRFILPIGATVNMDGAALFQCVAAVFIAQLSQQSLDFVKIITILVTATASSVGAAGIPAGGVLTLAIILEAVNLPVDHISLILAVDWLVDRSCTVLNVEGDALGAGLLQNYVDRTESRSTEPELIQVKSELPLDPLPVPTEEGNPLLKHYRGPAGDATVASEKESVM

[4] = target: T1, rASCT2; experiment: Competition experiment with alanine, rASCT2; conditions: second entry of the cell; for Ki: read-out: Competition Expt (h/rASCT2 Ki): rASCT2 Ki
[5] = target: T3, hASCT2; experiment: Electrophysiology (whole-cell current recording) of transfected HEK293 cells, hASCT2
Experimental: as §1, §2, §3

[6] = target: T4, EAAC1 (UniProt P51907); experiment: Electrophysiology specificity experiment in transfected HEK293 cells, EAAC1; conditions: apparent Ki, HEK293, internal solution 10 mM glutamate, mean ± SD
T4 construct: Ki EAAC1; other: apparent Ki, HEK293, internal solution 10 mM glutamate, mean ± SD
T4 sequence (P51907 1-523): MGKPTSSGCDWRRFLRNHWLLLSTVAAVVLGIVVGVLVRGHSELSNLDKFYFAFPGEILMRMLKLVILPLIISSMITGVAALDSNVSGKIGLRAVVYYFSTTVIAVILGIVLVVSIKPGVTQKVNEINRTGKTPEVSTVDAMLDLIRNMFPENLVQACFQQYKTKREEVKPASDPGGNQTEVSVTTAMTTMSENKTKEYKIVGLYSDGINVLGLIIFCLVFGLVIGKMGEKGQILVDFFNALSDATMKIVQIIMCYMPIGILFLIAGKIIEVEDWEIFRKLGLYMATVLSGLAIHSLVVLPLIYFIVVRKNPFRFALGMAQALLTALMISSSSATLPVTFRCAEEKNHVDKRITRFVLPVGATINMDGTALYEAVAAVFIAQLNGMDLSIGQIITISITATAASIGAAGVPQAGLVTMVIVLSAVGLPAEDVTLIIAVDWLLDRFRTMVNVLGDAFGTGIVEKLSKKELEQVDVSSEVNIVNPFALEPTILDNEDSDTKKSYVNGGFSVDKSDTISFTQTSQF
Experimental: Cells were maintained at 37° C. in a fully humidified atmosphere containing 5% CO2. rASCT2, hASCT2, hASCT1, EAAT1, EAAT2, EAAC1, EAAT5 and YFP complementary DNAs were each used to transiently transfect HEK293 using POLYPLUS Jet-prime transfection reagent. Cells were analyzed using electrophysiological techniques 24-40 hours after transfection.
as §2
as §3, with “The figures show representative current traces and dose-response curves for hACST2 and rASCT2, used to obtain Ki values in TABLE 2 for compound SN 40.” left out

[7] = target: T5, EAAT1 (Homo sapiens, UniProt P43003); experiment: Electrophysiology specificity experiment in transfected HEK293 cells, EAAT1; conditions: apparent Ki, HEK293, internal solution 10 mM glutamate, mean ± SD
T5 construct: expressed in transfected cells; host or cells: HEK293 (ATCC CRL-11268), transient transfection
Experimental: as §1, §2, §3

[8] = target: T6, EAAT5 (Homo sapiens, UniProt O00341); experiment: Electrophysiology specificity experiment in transfected HEK293 cells, EAAT5; conditions: apparent Ki, HEK293, internal solution 10 mM glutamate, mean ± SD
T6 construct: expressed in transfected cells; host or cells: HEK293 (ATCC CRL-11268), transient transfection
Experimental: as §1, §2, §3

[9] = target: T7, EAAT2 (Homo sapiens, UniProt P43004); experiment: Electrophysiology specificity experiment in transfected HEK293 cells, EAAT2; conditions: apparent Ki, HEK293, internal solution 10 mM glutamate, mean ± SD; read-out: Ki EAAT2
T7 construct: expressed in transfected cells; host or cells: HEK293 (ATCC CRL-11268), transient transfection
Experimental: as §1, §2, §3

[10] = Table 3, dihydroxyproline derivatives
[11] = Table 3, dihydroxyproline derivatives, read-out: Ki All DNA: hASCT1
[12] = Table 3, dihydroxyproline derivatives, read-out: Ki All DNA: rASCT2
[13] = Table 3, dihydroxyproline derivatives, read-out: Ki All DNA: hASCT2
[14] = apparent Ki in the absence of substrate, HEK293, mean ± SD, read-out: Ki rASCT2
[15] = apparent Ki in the absence of substrate, HEK293, mean ± SD, read-out: Ki hASCT2
[16] = apparent Ki in the absence of substrate, HEK293, mean ± SD, read-out: Ki hASCT1

T6 sequence (O00341 whole entry, species assumed): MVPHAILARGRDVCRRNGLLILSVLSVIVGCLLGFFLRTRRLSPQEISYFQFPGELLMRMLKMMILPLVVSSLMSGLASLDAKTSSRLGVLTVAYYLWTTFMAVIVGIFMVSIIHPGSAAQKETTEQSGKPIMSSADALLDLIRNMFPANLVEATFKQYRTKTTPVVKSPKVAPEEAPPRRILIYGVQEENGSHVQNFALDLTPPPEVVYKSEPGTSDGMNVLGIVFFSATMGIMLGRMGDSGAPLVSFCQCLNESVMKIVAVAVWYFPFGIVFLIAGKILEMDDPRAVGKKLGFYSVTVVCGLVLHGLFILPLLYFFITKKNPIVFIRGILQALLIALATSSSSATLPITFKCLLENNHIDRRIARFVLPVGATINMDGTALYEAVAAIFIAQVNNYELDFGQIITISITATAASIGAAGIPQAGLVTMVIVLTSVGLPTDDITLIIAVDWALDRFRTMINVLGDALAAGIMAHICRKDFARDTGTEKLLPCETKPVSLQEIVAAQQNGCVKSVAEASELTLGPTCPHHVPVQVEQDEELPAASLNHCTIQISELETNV
T5 sequence (P43003 whole entry, species assumed): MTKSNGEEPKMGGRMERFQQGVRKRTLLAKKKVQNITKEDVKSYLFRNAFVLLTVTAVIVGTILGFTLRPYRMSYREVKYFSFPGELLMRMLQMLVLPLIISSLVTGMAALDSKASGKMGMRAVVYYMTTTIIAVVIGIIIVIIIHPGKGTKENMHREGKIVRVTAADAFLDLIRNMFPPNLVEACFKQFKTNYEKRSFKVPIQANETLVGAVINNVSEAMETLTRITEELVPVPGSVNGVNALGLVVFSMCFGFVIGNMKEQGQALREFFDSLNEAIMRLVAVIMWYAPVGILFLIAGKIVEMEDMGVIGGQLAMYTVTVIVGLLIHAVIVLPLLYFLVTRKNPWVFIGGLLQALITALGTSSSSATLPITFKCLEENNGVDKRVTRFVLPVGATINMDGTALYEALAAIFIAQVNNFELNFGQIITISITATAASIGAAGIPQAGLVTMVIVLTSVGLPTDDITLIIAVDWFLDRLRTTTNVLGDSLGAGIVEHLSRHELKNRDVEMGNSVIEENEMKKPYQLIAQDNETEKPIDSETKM
T7 sequence (P43004 whole entry, species assumed): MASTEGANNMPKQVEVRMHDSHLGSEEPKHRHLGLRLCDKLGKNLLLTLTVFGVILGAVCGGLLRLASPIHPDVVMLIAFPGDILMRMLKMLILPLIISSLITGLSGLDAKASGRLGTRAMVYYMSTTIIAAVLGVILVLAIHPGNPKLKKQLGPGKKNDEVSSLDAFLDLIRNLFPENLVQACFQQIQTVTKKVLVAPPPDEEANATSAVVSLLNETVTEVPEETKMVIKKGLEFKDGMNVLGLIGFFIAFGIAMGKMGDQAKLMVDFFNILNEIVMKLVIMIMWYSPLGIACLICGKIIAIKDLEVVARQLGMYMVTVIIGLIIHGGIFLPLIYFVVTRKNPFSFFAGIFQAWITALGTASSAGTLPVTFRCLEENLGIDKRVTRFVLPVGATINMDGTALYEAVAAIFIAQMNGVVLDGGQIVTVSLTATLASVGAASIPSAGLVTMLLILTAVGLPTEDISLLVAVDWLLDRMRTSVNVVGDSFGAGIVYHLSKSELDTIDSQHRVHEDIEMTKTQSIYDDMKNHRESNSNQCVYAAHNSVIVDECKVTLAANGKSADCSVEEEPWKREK

Structure (SMILES) | Ki [2, 11] [µM] | Ki ([3]; 1 mM ala) [µM] | Ki ([4]; 1 mM ala) [µM] | Ki [1, 12] [µM] | Ki [5, 13] [µM] | Competition Expt % block (given as a decimal): hASCT2 ([3]; 0.5 mM ala, decimal fraction) | Competition Expt % block (given as a decimal): rASCT2 ([4]; 0.5 mM ala, decimal fraction) | Ki [7] [µM] | Ki [1, 14] [µM] | Ki [5, 15] [µM] | Ki [8] [µM] | other results
O=C(OC[C@@]1(O)CN[C@H](C(=O)O)C1)c1ccc(-c2ccc(F)cc2)cc1 [SN58] | 3.06 | 19.2 | 12.8 | – | – | – | – | – | – | – | – | Ki All DNA: rASCT2 [1, 10]: Very Low; Competition Expt % block (given as a decimal): hASCT2 ([3]; 1 mM ala): full; Competition Expt % block (given as a decimal): rASCT2 ([4]; 1 mM ala): full; Ki All DNA: hASCT2 [5, 10]: Very Low
O=C(OC[C@@]1(O)CN[C@H](C(=O)O)C1)c1ccc(-c2ccc(C(F)(F)F)cc2)cc1 [SN59] | 0.002 | 19.4 | 0.15 | 0.005 | 3.24 | – | – | – | – | – | – | Competition Expt % block (given as a decimal): hASCT2 ([3]; 1 mM ala): full; Competition Expt % block (given as a decimal): rASCT2 ([4]; 1 mM ala): full
O=C(OC[C@]1(O)CN[C@H](C(=O)O)C1)c1ccc(-c2ccc(F)cc2)cc1 [SN66] | – | 28 | 49 | 27.6 | 15.5 | – | – | – | – | – | – | –
O=C(OC[C@]1(O)CN[C@H](C(=O)O)C1)c1ccc(-c2ccccc2)cc1 [SN65] | 59.2 | – | – | 25.8 | 30.5 | 0.8 | 0.4 | – | – | – | – | Ki ([3]; 0.5 mM ala): 52.2 µM; Ki ([4]; 0.5 mM ala): 170 µM
O=C(O)[C@H]1NC[C@@H](NCc2ccc(-c3ccccc3)cc2)[C@@H]1O [SN 50] | – | – | – | – | – | – | – | 2.71 ± 0.7 | 1.34 ± 0.1 | 1.61 ± 0.2 | – | Ki [6]: 20.1 ± 6.2 µM
O=C(Nc1cccc(C(=O)O[C@@H]2CN[C@H](C(=O)O)C2)c1)c1ccccc1 [SN 16] | – | – | – | – | – | – | – | 49.4 ± 9.7 | 0.11 ± 0.04 | 0.39 ± 0.1 | 566 ± 188 | Ki [2, 16]: 10.1 ± 0.6 µM
O=C(O[C@@]1(CO)CN[C@H](C(=O)O)C1)c1ccc(-c2ccccc2)cc1 [SN77] | – | – | – | – | – | 0.5 | 0.5 | – | – | – | – | Ki ([3]; 0.5 mM ala): 20.3 µM; Ki ([4]; 0.5 mM ala): 12.9 µM
O=C(O)[C@@H]1C[C@H](NCc2ccc(-c3ccccc3)cc2)CN1 [SN 40] | – | – | – | – | – | – | – | 2.94 ± 0.4 | 7.29 ± 1.8 | 2.42 ± 0.1 | 5.55 ± 0.7 | Ki [6]: 24.4 ± 2.5 µM; Ki [9]: 5.55 ± 1.7 µM
O=C(O[C@@H]1CN[C@H](C(=O)O)C1)c1ccc(C(=O)c2ccccc2)cc1 [SN 12] | – | – | – | – | – | – | – | 21.2 ± 4.5 | 6.66 ± 1.2 | 21.4 ± 3.2 | 13.8 ± 2.7 | Ki [9]: 15.4 ± 4.9 µM; Ki [2, 16]: 6.86 ± 1.1 µM
O=C(OC[C@]1(O)CN[C@H](C(=O)O)C1)c1ccc(-c2ccc(C(F)(F)F)cc2)cc1 [SN67] | – | – | – | – | 115 | 0 | 0 | – | – | – | – | Ki All DNA: hASCT1 [2, 10]: NA, NC
